This is an account of results in patent US12528784B2, “Alkynyl-(heteroaryl)-carboxamide HCN1 inhibitors” (Hoffmann-La Roche Inc., priority 2019, dated 2026).

Test [1] has as its target T1, HCN1 (Homo sapiens, UniProt O60741).
T1 construct: expressed in transfected cells
T1 sequence (O60741 1-890): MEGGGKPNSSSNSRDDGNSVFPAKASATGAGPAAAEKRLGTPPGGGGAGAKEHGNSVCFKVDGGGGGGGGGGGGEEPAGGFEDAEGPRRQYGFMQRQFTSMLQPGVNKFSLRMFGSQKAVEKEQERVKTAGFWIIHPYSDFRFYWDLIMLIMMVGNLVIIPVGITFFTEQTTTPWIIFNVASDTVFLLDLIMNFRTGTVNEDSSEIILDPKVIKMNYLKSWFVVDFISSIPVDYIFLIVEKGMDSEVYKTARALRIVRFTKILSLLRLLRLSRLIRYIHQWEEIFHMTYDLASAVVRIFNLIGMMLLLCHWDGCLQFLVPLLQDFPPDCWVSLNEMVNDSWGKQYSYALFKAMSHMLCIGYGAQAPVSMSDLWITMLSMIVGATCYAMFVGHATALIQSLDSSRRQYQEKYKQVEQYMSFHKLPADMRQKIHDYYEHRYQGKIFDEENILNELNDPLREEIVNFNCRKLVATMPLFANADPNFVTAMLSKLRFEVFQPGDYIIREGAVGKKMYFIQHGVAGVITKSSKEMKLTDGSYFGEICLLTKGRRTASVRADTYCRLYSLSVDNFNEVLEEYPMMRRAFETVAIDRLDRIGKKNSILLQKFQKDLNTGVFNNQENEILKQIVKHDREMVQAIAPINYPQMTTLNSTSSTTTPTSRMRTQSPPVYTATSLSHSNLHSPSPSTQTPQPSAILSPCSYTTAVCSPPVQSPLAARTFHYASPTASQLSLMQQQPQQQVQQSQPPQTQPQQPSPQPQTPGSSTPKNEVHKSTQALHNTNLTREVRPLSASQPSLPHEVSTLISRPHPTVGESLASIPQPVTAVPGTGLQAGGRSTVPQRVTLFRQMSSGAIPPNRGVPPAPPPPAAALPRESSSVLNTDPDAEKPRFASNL
The test can be described thus: HCN1 automated patch clamp current inhibition assay (Ionworks Barracuda). In kind it is cell-based. The conditions noted are these: HEK-293 cells stably expressing HCN1; current inhibition during a hyperpolarizing pulse of -100 mV.

Test [2] concerns the target T2, HCN3 (Homo sapiens, UniProt Q9P1Z3).
T2 construct: expressed in transfected cells
T2 sequence (Q9P1Z3 1-774): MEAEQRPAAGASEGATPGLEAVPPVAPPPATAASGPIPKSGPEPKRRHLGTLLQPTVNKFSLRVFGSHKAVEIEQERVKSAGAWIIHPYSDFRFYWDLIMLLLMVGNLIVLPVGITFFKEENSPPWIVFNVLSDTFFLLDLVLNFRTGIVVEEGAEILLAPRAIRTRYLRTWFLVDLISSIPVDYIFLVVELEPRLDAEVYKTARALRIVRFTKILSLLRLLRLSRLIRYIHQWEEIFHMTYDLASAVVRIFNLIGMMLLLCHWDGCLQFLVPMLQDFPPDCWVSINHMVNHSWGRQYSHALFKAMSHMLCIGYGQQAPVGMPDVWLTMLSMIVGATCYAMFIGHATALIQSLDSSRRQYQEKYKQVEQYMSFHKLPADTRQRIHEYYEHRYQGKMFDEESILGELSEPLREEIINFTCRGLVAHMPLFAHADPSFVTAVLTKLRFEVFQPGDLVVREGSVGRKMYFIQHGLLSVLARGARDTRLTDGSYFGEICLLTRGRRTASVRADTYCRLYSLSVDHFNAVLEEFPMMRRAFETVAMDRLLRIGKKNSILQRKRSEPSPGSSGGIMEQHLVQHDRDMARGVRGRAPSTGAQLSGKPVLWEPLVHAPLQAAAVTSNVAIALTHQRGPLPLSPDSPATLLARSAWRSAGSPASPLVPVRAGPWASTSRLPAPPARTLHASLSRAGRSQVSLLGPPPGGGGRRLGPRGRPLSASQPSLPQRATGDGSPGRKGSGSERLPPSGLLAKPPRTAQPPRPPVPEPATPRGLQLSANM
The test can be described thus: HCN3 automated patch clamp current inhibition assay (Ionworks Barracuda). The format is cell-based. The following applies: HEK-293 cells stably expressing HCN3; current inhibition during a hyperpolarizing pulse of -100 mV. The method, then: In vitro, high-throughput cellular electrophysiology was employed to detect voltage- and use-dependence of compounds in single concentration screening and IC50 determination for library and medicinal chemistry profiling compounds in 384 well plates.
Cell cultures were maintained in DMEM/F12 cell growth media containing FBS and appropriate antibiotics at 37° C., 5% CO2 for a maximum of 20 passages. At a time point of 40-72 hours prior to assay, the expression of HCN protein in the cells is induced by addition of tetracyclin. Cells may be incubated at 27° C. for 2-24 hours of induction. […] Cells were harvested at 80% confluency and resuspended in extracellular buffer and added to wells. A freshly prepared Escin solution was added to intracellular buffer and applied to establish whole cell recording via perforated patch clampling by APC.
Currents through activated channels were measured directly by APC by employing hyperpolarizing voltage steps. The activation window was increased and stabilized by the addition of cell permeable Br-cAMP. Baselines were established for both use- and voltage-dependence protocols using a −30 mV holding potential and multiple test pulses at −100 mV or by 20 mV steps from −120 to 0 mV, respectively. Test compounds were added after baseline recordings followed by a 10 min incubation, voltage-dependency protocol recording, and use-dependency recording. Data was corrected for baseline and rundown (well based) and normalized for % inhibition (plate based). Five previously reported HCN inhibitors of varying potencies and selectivities and zatebradine were used for run to run and plate to plate quality controls. […] Percent inhibition was analysed at −80, −100, −120 mV of the voltage-dependency protocol and at pulse 0 and 50 of the use-dependency protocols. Selectivity was assessed against HCN2, HCN3, and HCN4 overexpressing cell lines using similar methods. As HCN4 has a slower activation than the other HCN channels, activation was extended to achieve steady state activation.

The structures appear in SMILES notation.

For `Cc1ccc(-n2c(C(N)=O)nc(C#Cc3ccnc(Cl)c3C)c2C)cn1` [Example 1, 4-((2-Chloro-3-methylpyridin-4-yl)ethynyl)-5-methyl-1-(6-methylpyridin-3-yl)-1H-imidazole-2-carboxamide], the IC50 was 0.159 µM in test [1] and above 40 µM in test [2].

Take `Cc1ccc(-n2c(C(N)=O)nc(C#Cc3ccnc(Cl)c3F)c2C)cn1` [Example 2, 4-((2-Chloro-3-fluoropyridin-4-yl)ethynyl)-5-methyl-1-(6-methylpyridin-3-yl)-1H-imidazole-2-carboxamide]: the IC50 in test [1] was 0.173 µM; in test [2], above 40 µM.

As to `Cc1ccc(-n2c(C(N)=O)nc(C#Cc3csc(Cl)c3)c2C)cn1` [Example 3, 4-[2-(5-Chlorothiophen-3-yl)ethynyl]-5-methyl-1-(6-methylpyridin-3-yl)imidazole-2-carboxamide], the IC50 was determined as 0.1 µM in test [1] and 25.7 µM in test [2].

As to `Cc1ccc(-n2c(C(N)=O)nc(C#Cc3cccc(Cl)c3)c2C)cn1` [Example 4, 4-[2-(3-Chlorophenyl)ethynyl]-5-methyl-1-(6-methyl-3-pyridyl)imidazole-2-carboxamide], the IC50 stood at 0.225 µM in test [1] and 32.8 µM in test [2].

Regarding `Cc1ccc(-n2c(C(N)=O)nc(C#Cc3cccc(C#N)c3)c2C)cn1` [Example 5, 4-((3-Cyanophenyl)ethynyl)-5-methyl-1-(6-methylpyridin-3-yl)-1H-imidazole-2-carboxamide], the half-inhibitory concentration (IC50) in test [1] is 0.24 µM; in test [2], above 40 µM.

In the case of `Cc1ccc(-n2c(C(N)=O)nc(C#Cc3ccnc(Cl)c3)c2C)cn1` [Example 6, 4-(2-Chloro-pyridin-4-ylethynyl)-5-methyl-1-(6-methyl-pyridin-3-yl)-1H-imidazole-2-carboxylic Acid Amide], the IC50 was 0.26 µM in test [1] and above 40 µM in test [2].

Take `COc1cccc(C#Cc2nc(C(N)=O)n(-c3ccc(C)nc3)c2C)c1` [Example 8, 4-((3-Methoxyphenyl)ethynyl)-5-methyl-1-(6-methylpyridin-3-yl)-1H-imidazole-2-carboxamide]: the IC50 is 0.46 µM in test [1] and 36.4 µM in test [2].

Regarding `Cc1cccc(C#Cc2nc(C(N)=O)n(-c3ccc(C)nc3)c2C)c1` [Example 10, 5-Methyl-1-(6-methylpyridin-3-yl)-4-(m-tolylethynyl)-1H-imidazole-2-carboxamide], the IC50 was 0.579 µM in test [1] and above 40 µM in test [2].

`Cc1cnc(-n2c(C(N)=O)nc(C#Cc3ccnc(Cl)c3C)c2C)cn1` [Example 23, 4-[2-(2-Chloro-3-methyl-4-pyridyl)ethynyl]-5-methyl-1-(5-methylpyrazin-2-yl)imidazole-2-carboxamide]: the IC50 in test [1] was found to be 0.303 µM; in test [2], 2.4 µM.

Take `Cc1c(C#Cc2nc(C(N)=O)n(-c3ccc(Cl)nc3)c2C)ccnc1Cl` [Example 26, 4-[2-(2-Chloro-3-methyl-4-pyridyl)ethynyl]-1-(6-chloro-3-pyridyl)-5-methyl-imidazole-2-carboxamide]: the IC50 in test [1] was 0.241 µM; in test [2], above 40 µM.

`COc1ccc(-n2c(C(N)=O)nc(C#Cc3ccnc(Cl)c3C)c2C)cn1` [Example 27, 4-[2-(2-Chloro-3-methyl-4-pyridyl)ethynyl]-1-(6-methoxy-3-pyridyl)-5-methyl-imidazole-2-carboxamide]: the IC50 in test [1] came out at 0.051 µM; in test [2], 38.4 µM.

Turning to `Cc1ccc(-n2c(C(N)=O)nc(C#Cc3ccnc(Cl)c3C)c2C)nc1` [Example 28, 4-[2-(2-Chloro-3-methyl-4-pyridyl)ethynyl]-5-methyl-1-(5-methyl-2-pyridyl)imidazole-2-carboxamide], the IC50 is 0.192 µM in test [1] and above 40 µM in test [2].

Regarding `Cc1ccc(-n2c(C(N)=O)cc(C#Cc3ccnc(Cl)c3)c2C)cn1` [Example 31, 4-[2-(2-Chloro-4-pyridyl)ethynyl]-5-methyl-1-(6-methyl-3-pyridyl)pyrrole-2-carboxamide], the values for the IC50 in test [1] and in test [2] were 0.231 µM and 23.5 µM, respectively.

Turning to `Cc1ccc(-c2c(C(N)=O)nc(C#Cc3ccnc(Cl)c3)n2C)cn1` [Example 32, 2-[2-(2-Chloro-4-pyridyl)ethynyl]-1-methyl-5-(6-methyl-3-pyridyl)imidazole-4-carboxamide], the IC50 was 0.429 µM in test [1] and above 40 µM in test [2].

`Cc1ccc(-n2c(C(N)=O)nc(C#Cc3ccnc(Cl)c3)c2C)cc1` [Example 38, 4-[2-(2-Chloro-4-pyridyl)ethynyl]-5-methyl-1-(p-tolyl)imidazole-2-carboxamide]: the IC50 in test [1] was 0.232 µM; in test [2], above 40 µM.

Take `Cc1c(C#Cc2ccnc(Cl)c2)nc(C(N)=O)n1-c1ccc(Cl)cc1` [Example 39, 1-(4-Chlorophenyl)-4-((2-chloropyridin-4-yl)ethynyl)-5-methyl-1H-imidazole-2-carboxamide]: the IC50 is 0.383 µM in test [1] and above 40 µM in test [2].

As to `NC(=O)c1nc(C#Cc2ccnc(Cl)c2)cn1-c1ccc(F)cc1` [Example 42, 4-(2-Chloro-pyridin-4-ylethynyl)-1-(4-fluoro-phenyl)-1H-imidazole-2-carboxylic Acid Amide], the values for the IC50 in test [1] and in test [2] were 2.52 µM and above 40 µM, respectively.
